Test: Pharmacokinetic study, single intravenous infusion in cynomolgus monkeys
Details: both, cynomolgus monkey, in vivo
Method: 18 cynomolgus monkeys (half female and half male) were weighed one day before administration, stratified based on the weight, and then randomly divided into 3 groups (3 females and 3 males/group): a low dose group (1 mg/kg), a medium dose group (3 mg/kg), and a high dose group (10 mg/kg). […] Blood was collected from the forelimb veins of cynomolgus monkeys in each group, and treated samples of the blood collected at 0 h before and 0.5 […], and 672 h after the administration were used as PK samples. After the blood collection at each time point was completed, serum was obtained by centrifugation for sample analysis.

CC[C@@]1(O)C(=O)OCc2c1cc1n(c2=O)Cc2c-1nc1cc(F)c(C)c3c1c2[C@@H](NC(=O)C[C@H](C)O)CC3 [P-III-30]
AUC0-t (3 mg/kg): 1.07 ng·h/mL
Cmax (3 mg/kg): 0.133 ng/mL
AUC0-t (10 mg/kg): 44.5 ng·h/mL
